# Patent US12427192B2, “Water soluble adjuvant and composition containing same” (Sumitomo Pharma Co., Ltd., priority 2019, dated 2025)
# Tested on: HLA-A*24:02 transgenic mouse
# Test: Test 3: in vivo CTL induction, cocktail vaccine b, IFNγ ELISPOT
# Details: FIG. 1; for CTL counts responsive to Peptide SEQ ID No. 2 on adding the compound to cocktail vaccine b: vs cocktail vaccine b alone, 100 ng Example 1 or 69 ng Reference example 12 per body, intradermal, twice
# Experimental: Evaluation of In Vivo CTL Induction in HLA-A*24:02 Transgenic Mouse
# The in vivo adjuvant activity of the compound of Example 1 and the compound of Reference example 12 was evaluated in the following procedure. To a cocktail vaccine comprising Compound of formula 4 prepared in Reference example 8 and Peptide SEQ ID No. 3 prepared in Reference example 3 with Montanide ISA 51 V (hereinafter, referred to as “cocktail vaccine b”) was added the compound prepared in Example 1 or the compound prepared in Reference example 12 respectively to prepare each vaccine. The vaccine was administered to a HLA-A*24:02 transgenic mouse, and the adjuvant activity of each vaccine was evaluated by the method of testing antigen-specific cytotoxic T-lymphocyte (CTL) induction.
# The CYTWNQMNL (SEQ ID No. 2) in Compound of formula 4 corresponds to an antigen peptide derived from an HLA-A*24:02-restricted WT1 protein.
# HLA-A*24:02 transgenic mouse (C57BL/6CrHLA-A2402/K^b) expresses a chimeric HLA of a human MHC (HLA-A*24:02) and a mouse MHC (H-2K^b). The mouse can induce CTLs with a peptide which can induce CTLs in HLA-A*24:02-positive human (Int J Cancer. 2002; 100: 565-70).
# The character for inducing CTLs specific to the peptide (SEQ ID No. 2) by cocktail vaccine b was evaluated by measuring whether IFNγ can be produced upon stimulation of splenocytes from the mouse with the peptide (SEQ ID No. 2). In addition, the character for exerting in vivo adjuvant activity by the compound in Example 1 or the compound in Reference example 12 was evaluated by comparing the number of CTLs induced by cocktail vaccine b and the number of CTLs induced by the vaccine prepared by adding the compound prepared in Example 1 or the compound in Reference example 12 to cocktail vaccine b, and checking presence or absence of the increase on the number.
# Specifically, Compound of formula 4 and Peptide SEQ ID No. 3 were dissolved in DMSO, and then diluted with water for injection to concentrations of Compound of formula 4 of 6 mg/ml and Peptide of SEQ ID No. 3 of 4.5 mg/ml. […]
SMILES,"increase of the CTL counts (Peptide SEQ ID No. 2) compared with Reference example 12 (added to cocktail vaccine b, 100 ng Example 1 vs 69 ng Reference example 12 per body)",CTL counts responsive to Peptide SEQ ID No. 2 on adding the compound to cocktail vaccine b
"CCCCCNc1nc(N)nc(C)c1Cc1ccc(CN(C)CCOCCOCCOCCOCCO)cc1OC [Example 1, 1-(4-{[2-amino-4-methyl-6-(pentylamino)pyrimidin-5-yl]methyl}-3-methoxyphenyl)-2-methyl-5,8,11,14-tetraoxa-2-azahexadecan-16-ol·trifluoroacetate]",more,increased
"CCCCCNc1nc(N)nc(C)c1Cc1ccc(CNC)cc1OC [Reference example 12, 5-({2-methoxy-4-[(methylamino)methyl]phenyl}methyl)-6-methyl-N^4-pentylpyrimidine-2,4-diamine, reference compound]",,increased
